In ChEMBL document CHEMBL2040759, “Design, synthesis and anticancer activity of nitric oxide donating/chalcone hybrids” (2012):

Tests used:
Format in all cases: functional
A549 = assay: Growth inhibition of human A549/ATCC cells after 48 hrs by SRB assay; details: A549, 48 h
EKVX = assay: Growth inhibition of human EKVX cells after 48 hrs by SRB assay
NCI-H23 = assay: Growth inhibition of human NCI-H23 cells after 48 hrs by SRB assay; details: NCI-H23, 48 h
KM12 = assay: Growth inhibition of human KM12 cells after 48 hrs by SRB assay; details: KM12, 48 h
SNB-19 = assay: Growth inhibition of human SNB19 cells after 48 hrs by SRB assay; details: SNB-19, 48 h
U-251 = assay: Growth inhibition of human U251 cells after 48 hrs by SRB assay; details: U-251, 48 h
LOX IMVI = assay: Growth inhibition of human LOXIMVI cells after 48 hrs by SRB assay
[1] = Growth inhibition of human NCI-ADR-RES cells after 48 hrs by SRB assay
PC-3 = assay: Growth inhibition of human PC3 cells after 48 hrs by SRB assay; details: PC-3, 48 h
DU-145 = assay: Growth inhibition of human DU145 cells after 48 hrs by SRB assay; details: DU-145, 48 h
MCF7 = assay: Growth inhibition of human MCF7 cells after 48 hrs by SRB assay; details: MCF7, 48 h
MDA-MB-231 = assay: Growth inhibition of human MDA-MB-231 cells after 48 hrs by SRB assay; details: MDA-MB-231, 48 h
BT-549 = assay: Growth inhibition of human BT549 cells after 48 hrs by SRB assay; details: BT-549, 48 h
SF-539 = assay: Growth inhibition of human SF539 cells after 48 hrs by SRB assay; details: SF-539, 48 h
[2] = read-out: LC50 (the source's name)

Compound: O=C(CO[N+](=O)[O-])Nc1ccc(C(=O)/C=C/c2ccc(Cl)cc2)cc1
- GI50 (A549): 5.71 µM
- TGI (A549): 20.6 µM
- CC50 (A549; [2]): 57.9 µM
- GI50 (EKVX): 15 µM
- TGI (EKVX): 74.6 µM
- CC50 (EKVX; [2]): > 100 µM
- GI50 (NCI-H23): 4.55 µM
- TGI (NCI-H23): 22.1 µM
- CC50 (NCI-H23; [2]): 81.1 µM
- GI50 (KM12): 1.54 µM
- TGI (KM12): 3.1 µM
- CC50 (KM12; [2]): 6.23 µM
- GI50 (SNB-19): 4.11 µM
- TGI (SNB-19): 18.4 µM
- CC50 (SNB-19; [2]): 64 µM
- GI50 (U-251): 1.48 µM
- TGI (U-251): 3.15 µM
- CC50 (U-251; [2]): 6.68 µM
- GI50 (LOX IMVI): 1.59 µM
- TGI (LOX IMVI): 3.51 µM
- CC50 (LOX IMVI; [2]): 7.74 µM
- GI50 [1]: 3.87 µM
- TGI [1]: > 100 µM
- CC50 [1, 2]: > 100 µM
- GI50 (PC-3): 2.74 µM
- TGI (PC-3): 14.8 µM
- CC50 (PC-3; [2]): 72.9 µM
- GI50 (DU-145): 3.41 µM
- TGI (DU-145): 13.5 µM
- CC50 (DU-145; [2]): 36.7 µM
- GI50 (MCF7): 0.67 µM
- TGI (MCF7): 6.44 µM
- CC50 (MCF7; [2]): > 100 µM
- GI50 (MDA-MB-231): 5.39 µM
- TGI (MDA-MB-231): 21.2 µM
- CC50 (MDA-MB-231; [2]): 62 µM
- GI50 (BT-549): 1.86 µM
- TGI (BT-549): 5 µM
- CC50 (BT-549; [2]): > 100 µM
- GI50 (SF-539): 2.52 µM
- TGI (SF-539): 8.82 µM
- CC50 (SF-539; [2]): 42.9 µM
